The results in this text go back to PubChem BioAssay (NCI).

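Interpolation was linear, between the two tested concentrations surrounding the appropriate level; five concentrations were tested over 48 hours in 96-well plates. Here, GI50 denotes the concentration required for 50% inhibition of growth. The concentration for full growth arrest is given as TGI.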

Among the test systems are COLO 205 colon; EKVX NSCLC; SF-539 CNS; SK-MEL-5 melanoma; SN12C renal; SNB-75 CNS; SW-620 colon; TK-10 renal; U251 CNS; UO-31 renal.
Common to all, as to experiment: NCI anticancer screen, dose series, 48 h

Take `CS(=O)(=O)NNS(=O)(=O)c1ccccc1`: the TGI in the assay on COLO 205 colon, in the assay on EKVX NSCLC, in the assay on SF-539 CNS, in the assay with SK-MEL-5 melanoma, in the assay with SN12C renal and in the assay on SNB-75 CNS was more than 100 µM each time. Besides, the TGI with SW-620 colon, with TK-10 renal, with U251 CNS and in the assay with UO-31 renal was more than 100 µM in each case.
As for `Cn1c(=O)c(NC(=O)C(Cl)(Cl)Cl)nc2ccccc21`, the TGI with COLO 205 colon, in the assay on EKVX NSCLC, in the assay on SF-539 CNS, with SK-MEL-5 melanoma, in the assay on SN12C renal and in the assay with SNB-75 CNS was more than 100 µM each time. The TGI with SW-620 colon, in the assay on TK-10 renal, in the assay on U251 CNS and in the assay on UO-31 renal was more than 100 µM each time.
In the case of `CC(=O)c1c(CN(C)c2ccccc2)n([O-])c2ccccc2[n+]1=O`, the GI50 in the assay on COLO 205 colon was 16.2 µM; in the assay with EKVX NSCLC it was 41.2 µM; in the assay with SF-539 CNS it was 28.7 µM; in the assay with SK-MEL-5 melanoma, 16 µM; in the assay with SN12C renal it was 24.9 µM; with SNB-75 CNS, 53 µM. The GI50 with SW-620 colon is 21 µM; in the assay with TK-10 renal it was 45.8 µM; in the assay on U251 CNS, 29.7 µM; in the assay with UO-31 renal it was 32 µM. The TGI in the assay with COLO 205 colon was 32.9 µM; in the assay on EKVX NSCLC, more than 100 µM; in the assay with SF-539 CNS it was 86.6 µM; in the assay on SK-MEL-5 melanoma, 42.4 µM; in the assay with SN12C renal, 87.4 µM; in the assay on SNB-75 CNS, more than 100 µM. The TGI in the assay on SW-620 colon, in the assay with TK-10 renal, in the assay on U251 CNS and in the assay on UO-31 renal was more than 100 µM each time.
Consider `Cc1cn(C2C=CC(CO)O2)c(=O)[nH]c1=O` (stereo not given), for which the TGI in the assay with COLO 205 colon, with EKVX NSCLC, in the assay on SF-539 CNS, with SK-MEL-5 melanoma, in the assay with SN12C renal and with SNB-75 CNS was more than 1000 µM each time. For the same compound, the TGI in the assay on SW-620 colon, in the assay with TK-10 renal, in the assay with U251 CNS and with UO-31 renal was more than 1000 µM throughout.
For `O=C(/C=C/c1ccco1)c1ccc(NCc2nc3ccccc3[nH]2)cc1`, the TGI in the assay with COLO 205 colon came to 26.7 µM; in the assay on EKVX NSCLC it was 29.9 µM; in the assay with SF-539 CNS, 33.2 µM; with SK-MEL-5 melanoma it was 28.6 µM; in the assay with SN12C renal, 32 µM; in the assay with SNB-75 CNS, 31.1 µM. Also, the TGI in the assay with SW-620 colon stood at 34.3 µM; in the assay with TK-10 renal it was 39.1 µM; in the assay with U251 CNS, 23.8 µM; with UO-31 renal it was 27.3 µM.
For the compound `COc1cc(-c2cc(-c3ccc(Nc4ccnc5cc(Cl)ccc45)cc3)nc(N3CCOCC3)n2)cc(OC)c1OC`, the GI50 in the assay on COLO 205 colon is 2.79 µM; in the assay on EKVX NSCLC it was 2.62 µM; in the assay on SF-539 CNS, 1.94 µM; in the assay on SK-MEL-5 melanoma, 3.5 µM; in the assay on SN12C renal, 1.93 µM; in the assay on SNB-75 CNS, 1.65 µM. Also, the GI50 in the assay on SW-620 colon is 1.28 µM; in the assay on TK-10 renal, 1.82 µM; with U251 CNS, 1.62 µM; with UO-31 renal it was 1.57 µM. Further, the TGI with COLO 205 colon was 9.36 µM; in the assay on EKVX NSCLC, 9.73 µM; in the assay with SF-539 CNS, 3.67 µM; in the assay on SK-MEL-5 melanoma it was more than 100 µM; with SN12C renal, 3.81 µM; in the assay with SNB-75 CNS, 3.44 µM. In addition, the TGI stood at 3.45 µM in the assay with SW-620 colon, 3.3 µM in the assay with TK-10 renal, 3.12 µM in the assay with U251 CNS and 3.11 µM in the assay on UO-31 renal.
With `COc1ccc2c(c1)CC[C@@H]1[C@@H]2CC[C@]2(C)[C@@H](NC(=O)/C=C/c3ccc(O)c(O)c3)CC[C@@H]12`, the GI50 with COLO 205 colon is 14 µM; with EKVX NSCLC, 9.98 µM; with SF-539 CNS, 4.1 µM; with SK-MEL-5 melanoma, 3.86 µM; with SN12C renal, 2.61 µM; in the assay with SNB-75 CNS it was 21.9 µM. The GI50 in the assay on SW-620 colon is 5.55 µM; with TK-10 renal, 1.47 µM; in the assay on U251 CNS, 2.88 µM; with UO-31 renal, 1.26 µM. Moreover, the TGI was 46.8 µM in the assay on COLO 205 colon; 24.5 µM in the assay with EKVX NSCLC; 15.6 µM in the assay on SF-539 CNS; 16.4 µM in the assay with SK-MEL-5 melanoma; 9.3 µM in the assay on SN12C renal; more than 100 µM in the assay on SNB-75 CNS. The TGI came to 25 µM with SW-620 colon, 6.6 µM in the assay on TK-10 renal, 11.2 µM in the assay with U251 CNS and 15 µM in the assay with UO-31 renal.
`CN(C)c1nnnn1-c1c(N)n(C)c(=O)n(C)c1=O`: the TGI with COLO 205 colon, in the assay on EKVX NSCLC, in the assay on SF-539 CNS, with SK-MEL-5 melanoma, in the assay on SN12C renal and with SNB-75 CNS was more than 100 µM in each case. The TGI with SW-620 colon, with TK-10 renal, in the assay with U251 CNS and in the assay with UO-31 renal was more than 100 µM throughout.
Consider `Oc1ccc(-c2nc3ccc4[nH]ncc4c3c3c2CCCC3)c(F)c1`, for which the GI50 is 2.25 µM in the assay on COLO 205 colon; 3.16 µM in the assay with EKVX NSCLC; 2.41 µM in the assay on SF-539 CNS; 2.55 µM with SK-MEL-5 melanoma; 2.99 µM in the assay on SN12C renal; 2.02 µM in the assay on SNB-75 CNS. Moreover, the GI50 in the assay with SW-620 colon was 1.41 µM; in the assay on TK-10 renal, 2 µM; in the assay with U251 CNS, 1.45 µM; in the assay on UO-31 renal it was 2.6 µM. Further, the TGI in the assay on COLO 205 colon was determined as 5.56 µM; with EKVX NSCLC it was 13.5 µM; in the assay on SF-539 CNS, 10.2 µM; with SK-MEL-5 melanoma it was 9.26 µM; in the assay on SN12C renal, 12.5 µM; in the assay with SNB-75 CNS, 7.05 µM. Further, the TGI was 8.29 µM with SW-620 colon, 9.53 µM in the assay on TK-10 renal, 6.36 µM in the assay on U251 CNS and 8.35 µM with UO-31 renal.
For `CCOC(=O)c1c(C)n(Cc2ccccc2)c2c1cc(O)c1[nH]c(Cc3ccccc3)nc12`, the GI50 was 24.7 µM with COLO 205 colon; 25.5 µM with EKVX NSCLC; 17.1 µM with SF-539 CNS; 9.89 µM with SK-MEL-5 melanoma; 10.5 µM in the assay with SN12C renal; 8.04 µM with SNB-75 CNS. Further, the GI50 in the assay on SW-620 colon was 22.1 µM; in the assay with TK-10 renal, 1.5 µM; in the assay with U251 CNS, 7.46 µM; in the assay with UO-31 renal, more than 32.9 µM. Also, the TGI with COLO 205 colon was more than 54.8 µM; with EKVX NSCLC it was more than 79.5 µM; with SF-539 CNS it was more than 100 µM; with SK-MEL-5 melanoma, 39.1 µM; with SN12C renal it was 39.8 µM; with SNB-75 CNS it was 42.3 µM. The TGI in the assay with SW-620 colon was more than 60 µM; in the assay on TK-10 renal it was 54.5 µM; in the assay on U251 CNS, 33 µM; in the assay with UO-31 renal it was more than 51.4 µM.
`COc1cccc(-c2nn(-c3ccccc3)cc2-c2ccnc(NCCNC(=O)Nc3cccc(C(F)(F)F)c3)c2)c1`: the GI50 in the assay on COLO 205 colon was 1.88 µM; with EKVX NSCLC it was 2 µM; in the assay on SF-539 CNS, 1.75 µM; in the assay on SK-MEL-5 melanoma, 1.73 µM; with SN12C renal, 1.95 µM; in the assay with SNB-75 CNS, 1.62 µM. Besides, the GI50 with SW-620 colon is 1.91 µM; in the assay on TK-10 renal it was 2.74 µM; in the assay on U251 CNS it was 2.28 µM; with UO-31 renal, 1.6 µM. For the same compound, the TGI in the assay with COLO 205 colon was 3.78 µM; in the assay on EKVX NSCLC it was 6.65 µM; in the assay on SF-539 CNS it was 3.32 µM; in the assay with SK-MEL-5 melanoma it was 3.15 µM; in the assay with SN12C renal it was 4.06 µM; in the assay with SNB-75 CNS, 12.5 µM. The TGI turned out to be 3.81 µM in the assay on SW-620 colon, 11.9 µM in the assay with TK-10 renal, 5.26 µM with U251 CNS and 4.15 µM in the assay on UO-31 renal.
Consider `COc1ccc(C(c2ccc(OCCN(C)C)cc2)c2cc3ccccc3c3ccccc23)cc1` (stereo not given), for which the GI50 was 1.77 µM in the assay with COLO 205 colon; 1.59 µM with EKVX NSCLC; 1.7 µM with SF-539 CNS; 1.69 µM with SK-MEL-5 melanoma; 1.74 µM in the assay on SN12C renal; 1.36 µM with SNB-75 CNS. The GI50 in the assay with SW-620 colon was 1.69 µM; in the assay on TK-10 renal it was 1.64 µM; in the assay with U251 CNS, 1.57 µM; in the assay on UO-31 renal, 1.49 µM. For the same compound, the TGI in the assay with COLO 205 colon was found to be 3.47 µM; in the assay with EKVX NSCLC, 3.3 µM; in the assay with SF-539 CNS, 3.13 µM; in the assay on SK-MEL-5 melanoma, 3.11 µM; in the assay on SN12C renal, 3.25 µM; in the assay with SNB-75 CNS, 2.74 µM. For the same compound, the TGI in the assay with SW-620 colon was 3.31 µM; in the assay with TK-10 renal, 3.1 µM; with U251 CNS, 2.92 µM; in the assay with UO-31 renal it was 2.9 µM.
